Laboratory results from patent US20250275968A1, “INHIBITORS OF TAU PROTEINS” (DEUTSCHES ZENTRUM FÜR NEURODEGENERATIVE ERKRANKUNGEN E.V., priority 2022, published 2025).
Structures can show the parent of a compound that is named as a salt.

Assays:
2N4R tau aggregates = molecular target: T1, 2N4R tau aggregates (Homo sapiens, UniProt P10636); assay: Dissolution of preformed 2N4R tau fibrils (ThT fluorescence, TEM); type: biochemical; settings: compounds added to tau fibrils after about 40 h; tau monomer:Compound 1:3 and 1:10
T1 construct: Full-length 2N4R tau was incubated with Osimertinib mesylate
Procedure: (A) ThT fluorescence curves monitoring tau aggregation. tau fibrillization reached a saturation point within about 40 h, then compounds or buffer (Reference) were added to tau fibrils (tau monomer:Compound mole ratios 1:3 and 1:10). The experiment was performed in duplicate. […] Statistically significant differences were determined by one-way ANOVA with Dunnett's multiple comparison test. Significant differences corresponding to p≤0.0002(***) and p≤0.0001(****) are indicated. […] Scale bars are 500 nm. […] The dotted line corresponds to one standard deviation above the Reference value.
(§1) To prepare the Tau fibril seeds by de novo aggregation, 2N4R Tau at a monomer concentration of 25 μM was diluted in aggregation buffer. The working concentration of TCEP in the aggregation mixture was <25 μM after dilution of the stock. To this mixture, Thioflavin T (ThT) was added to a final concentration of 50 μM. A total volume of 100 μL of the Tau-ThT mixture was incubated in a well of a 96-well microplate (Greiner Bio-one), in the presence of two polytetrafluoroethylene beads. The microplate was subjected to a program implemented in a Tecan Spark plate reader that involved incubating at 37° C., with intervals of double orbital shaking and ThT fluorescence emission measurement. The excitation wavelength for ThT was set as 430 nm and the emission wavelength was 485 nm. Details of this plate reader program were published previously (Reference: Chakraborty, P. et al. Co-factor-free aggregation of tau into seeding-competent RNA-sequestering amyloid fibrils. Nat. Commun. 12, 4231 (2021)). […] The fibril-containing mixture collected from the microplate served as a seeding mixture for the subsequent aggregation assays.
Fibril samples were negative stained using glow discharged 400 mesh carbon-coated copper grids. After staining using a 1% uranyl acetate solution, images were acquired on a Talos L120C transmission electron microscope (Thermo Fisher, Eindhoven, The Netherlands).

2N4R Tau fibrils = molecular target: T2, 2N4R Tau fibrils (Homo sapiens, UniProt P10636); assay: Saturation transfer difference (STD) NMR with tau fibrils; type: binding; settings: 48-fold excess of compound, 100 mM NaCl, 2.5% (v/v) DMSO, pH 6.8, 37° C.
T2 construct: Full-length 2N4R tau was incubated with Osimertinib mesylate
Procedure: 2N4R Tau fibrils were prepared using the aggregation procedure described in the section in vitro assay 1 without Thioflavin T. The mole ratio of “free” compound to fibrils was 48:1 (corresponding to a total compound concentration of 250 μM and a total fibril concentration of 5 μM Tau). The NMR samples were prepared in 50 mM sodium phosphate with 100 mM NaCl and 2.5% (v/v) DMSO at pH 6.8. The spectra were recorded at 37° C. using a Bruker 700 MHz spectrometer equipped with a triple resonance cryoprobe. 1D ^1H-NMR STD spectra were acquired in an interleaved manner, alternating between off-resonance irradiation at 60 ppm and on-resonance irradiation at −2 ppm.

2N4R tau = molecular target: T3, 2N4R tau (Homo sapiens, UniProt P10636); assay: In vitro seeded aggregation/fibrillization assay of 2N4R tau (ThT fluorescence); type: biochemical; settings: for In vitro seeded aggregation/fibrillization of full-length tau (ThT fluorescence curves): 2N4R tau, various formulations
T3 construct: Full-length 2N4R tau was incubated with Osimertinib mesylate
Procedure: Aggregation of 2N4R Tau was performed using a previously published co-factor-free aggregation protocol, with a few modifications (Reference: Chakraborty, P. et al. Co-factor-free aggregation of tau into seeding-competent RNA-sequestering amyloid fibrils. Nat. Commun. 12, 4231 (2021)). Aggregation experiments used the Tau protein stock prepared in 25 mM HEPES pH 7.4, 1 mM TCEP. Stocks of compounds were prepared in aggregation buffer (25 mM HEPES, 10 mM KCl, 5 mM MgCl2, pH 7.2) or in DMSO (10 mM compound).
as §1
Seeded aggregation assays were performed as described above but with 1.0% of the well volume occupied by the seeding mixture sonicated for 1 minute. The assays were performed in the presence and absence of compounds, and working concentrations ranged from 0-250 μM compound.
Analyses of the fluorescence curves were performed using Graphpad PRISM version 8. Fluorescence data were fit to a sigmoid function. The number of hours corresponding to half-maximal ThT Fluorescence™ as well as the span of fluorescence intensity (Span) were determined for each sigmoid curve. Statistically significant differences were determined by one-way ANOVA analysis with Dunnett's multiple comparison test or unpaired t-test.

[1] = test system: HEK293T biosensor cells expressing the human tau repeat domain (RD) harboring the P301L/V337M mutation (TauRD^LM-GFP); assay: HEK biosensor cell tau seeding assay; type: cell-based; settings: for compound concentration up to which total amount of cells remained close to 100% (low toxicity): HEK biosensor cells, relative to vehicle (DMSO)
Procedure: Compound stock solutions were prepared as 10 mM compound in DMSO.
HEK293T biosensor cells expressing the human tau repeat domain (RD) harboring the P301L/V337M mutation and fused to a C-terminal GFP tag (named TauRD^LM-GFP) were engineered to probe Tau seeding in cellula (Reference: Liu, S., Hossinger, A., Heumüller, S E. et al. Highly efficient intercellular spreading of protein misfolding mediated by viral ligand-receptor interactions. Nat Commun 12, 5739 (2021). https://doi.org/10.1038/s41467-021-25855-2). HEK cells expressing the P301L human full-length Tau, C-terminally tagged with GFP were incubated with pre-sonicated hTau40^P301L fibrils to induce Tau aggregate formation. Cells were harvested and the resulting cell lysate was used to seed Tau aggregation in further experiments with HEK TauRD^LM-GFP cells.
In a typical seeded assay, HEK cells were incubated with cell lysate, compounds (0-40 μM) and lipofectamine for 22-48 hours. Negative control experiments in the absence of compounds (only with vehicle DMSO) and in the presence of cell lysate were performed in parallel.
Dose response curves were constructed by quantifying the number of cells with aggregates for each compound concentration. The curves were fitted with a sigmoid function using Graphpad PRISM version 8. The inhibitory concentration at 50% activity (IC50) was determined for each compound.

[2] = 2N4R tau^wt, mole ratios 1:3 and 1:10

T3 sequence (P10636 1-441 isoform P10636-8): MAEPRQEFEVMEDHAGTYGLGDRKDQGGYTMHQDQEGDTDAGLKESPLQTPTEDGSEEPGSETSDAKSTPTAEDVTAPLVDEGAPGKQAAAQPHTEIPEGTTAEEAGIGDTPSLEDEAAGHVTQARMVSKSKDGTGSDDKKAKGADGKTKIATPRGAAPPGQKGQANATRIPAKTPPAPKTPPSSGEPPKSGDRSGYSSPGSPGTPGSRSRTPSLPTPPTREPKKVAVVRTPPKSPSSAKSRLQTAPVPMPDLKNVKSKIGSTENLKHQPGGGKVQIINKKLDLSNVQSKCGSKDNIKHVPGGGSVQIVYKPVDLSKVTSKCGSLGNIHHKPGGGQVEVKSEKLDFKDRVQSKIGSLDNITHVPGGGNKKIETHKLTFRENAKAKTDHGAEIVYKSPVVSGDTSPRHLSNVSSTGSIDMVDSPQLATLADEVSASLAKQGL
T2 sequence (P10636 1-441 isoform P10636-8): as above
T1 sequence (P10636 1-441 isoform P10636-8): as above

Row | dissolution of 2N4R tau aggregates (reduction of ThT fluorescence intensity) (2N4R tau aggregates) | STD effect with tau fibrils (fibril binding epitopes) (2N4R Tau fibrils) | In vitro seeded aggregation/fibrillization of full-length tau (ThT fluorescence curves) (2N4R tau) | normalized Tm (midpoint of aggregation curve) (2N4R tau; [2]) | inhibitory activity towards tau aggregation (2N4R tau; 2.5% (v/v) DMSO) | Structure (SMILES) | compound concentration up to which total amount of cells remained close to 100% (low toxicity) [1] | normalized Span of ThT fluorescence (2N4R tau; [2]) | inhibition of seeded aggregation of tau in HEK biosensor cells ([1]; 0.25 μM or 7.5 μM, 22 hours, lipofectamine) | aggregate formation in cells ([1]; higher concentration (7.5 μM), 22 hours)
1 | partially dissolve | Protons showing STD effects | inhibited in a dose-dependent manner |  |  | C=CC(=O)Nc1cc(Nc2nccc(-c3c[nH]c4ccccc34)n2)c(OC)cc1N(C)CCN(C)C [Compound 3, N-[2-[[2-(dimethylamino)ethyl]methylamino]-5-[[4-(1H-indol-3-yl)-2-pyrimidinyl]amino]-4-methoxyphenyl]-2-Propenamide] | about 5.0 μM |  |  | 
2 |  |  |  | do not show a clear dose-dependence |  | C=CC(=O)Nc1cc(Nc2nccc(-c3cn(C)c4ccccc34)n2)c(OC)cc1N(C)CCN(C)C [Osimertinib mesylate, N-[2-(2-Dimethylaminoethylmethylamino)-4-methoxy-5-[[4-(1-methylindol-3-yl)pyrimidin-2-yl]amino]phenyl]prop-2-enamide Mesylate Salt] |  | statistically lower normalized Span values |  | 
3 | partially dissolve | Protons showing STD effects | inhibited in a dose-dependent manner |  | strong inhibitory activity | C=CC(=O)Nc1cc(Nc2nccc(-c3cn(C)c4ccccc34)n2)c(OC)cc1N(C)CCN(C)C [Osimertinib, N-[2-(2-Dimethylaminoethylmethylamino)-4-methoxy-5-[[4-(1-methylindol-3-yl)pyrimidin-2-yl]amino]phenyl]prop-2-enamide] | about 5.0 μM |  | inhibits the seeded aggregation of tau | decreased aggregate formation
